#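 Dose response: 5 concentrations. Exposure: 48 h. Format: 96-well plates. Endpoint: linear interpolation; highest concentration if not reached. TGI: concentration producing complete growth inhibition.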
# What was measured:
# Experiment in all cases: growth of human tumour cells (NCI), 48 h
# [1] = tested on: 786-0 renal
# [2] = tested on: A498 renal
# [3] = tested on: A549 NSCLC
# [4] = tested on: ACHN renal
# [5] = tested on: BT-549 breast
# [6] = tested on: CAKI-1 renal
# [7] = tested on: CCRF-CEM leukemia
# [8] = tested on: COLO 205 colon
# [9] = tested on: DU-145 prostate
# [10] = tested on: EKVX NSCLC
# [11] = tested on: HCC-2998 colon
# [12] = tested on: HCT-116 colon
# [13] = tested on: HCT-15 colon
# [14] = tested on: HOP-62 NSCLC
# [15] = tested on: HS 578T breast
# [16] = tested on: HT29 colon
# [17] = tested on: IGROV1 ovarian
# [18] = tested on: K-562 leukemia
# [19] = tested on: KM12 colon
# [20] = tested on: M14 melanoma
# [21] = tested on: MALME-3M melanoma
# [22] = tested on: MCF7 breast
# [23] = tested on: MDA-MB-231 breast
# [24] = tested on: MDA-MB-435
# [25] = tested on: MDA-N
# [26] = tested on: MOLT-4 leukemia
# [27] = tested on: NCI-H226 lung
# [28] = tested on: NCI-H23 lung
# [29] = tested on: NCI-H460 lung
# [30] = tested on: NCI-H522 lung
# [31] = tested on: NCI/ADR-RES ovarian
# [32] = tested on: OVCAR-3 ovarian
# [33] = tested on: OVCAR-4 ovarian
# [34] = tested on: OVCAR-5 ovarian
# [35] = tested on: OVCAR-8 ovarian
# [36] = tested on: PC-3 prostate
# [37] = tested on: RPMI-8226 leukemia
# [38] = tested on: RXF 393 renal
# [39] = tested on: SF-268 CNS
# [40] = tested on: SF-295 CNS
# [41] = tested on: SK-MEL-2 melanoma
# [42] = tested on: SK-MEL-28 melanoma
# [43] = tested on: SK-MEL-5 melanoma
# [44] = tested on: SK-OV-3 ovarian
# [45] = tested on: SN12C renal
# [46] = tested on: SNB-19 CNS
# [47] = tested on: SNB-75 CNS
# [48] = tested on: SR leukemia
# [49] = tested on: SW-620 colon
# [50] = tested on: T-47D breast
# [51] = tested on: TK-10 renal
# [52] = tested on: U251 CNS
# [53] = tested on: UACC-257 melanoma
# [54] = tested on: UACC-62 melanoma
# [55] = tested on: UO-31 renal
# [56] = tested on: LOX IMVI melanoma
# [57] = tested on: SF-539 CNS
# [58] = tested on: HL-60(TB) leukemia
# [59] = tested on: HOP-92 NSCLC
structure (smiles),measurement,setting,value
S=C(Nc1c2c(nc3ccccc13)CCCC2)Nc1c2c(nc3ccccc13)CCCC2,TGI,[1],> 100 µM
same,TGI,[2],> 100 µM
same,TGI,[3],> 100 µM
same,TGI,[4],> 100 µM
same,TGI,[5],> 100 µM
same,TGI,[6],> 100 µM
same,TGI,[7],> 100 µM
same,TGI,[8],> 100 µM
same,TGI,[9],> 100 µM
same,TGI,[10],> 100 µM
same,TGI,[11],> 100 µM
same,TGI,[12],> 100 µM
same,TGI,[13],> 100 µM
same,TGI,[14],> 100 µM
same,TGI,[15],> 100 µM
same,TGI,[16],> 100 µM
same,TGI,[17],> 100 µM
same,TGI,[18],> 100 µM
same,TGI,[19],> 100 µM
same,TGI,[20],> 100 µM
same,TGI,[21],> 100 µM
same,TGI,[22],> 100 µM
same,TGI,[23],> 100 µM
same,TGI,[24],> 100 µM
same,TGI,[25],> 100 µM
same,TGI,[26],> 100 µM
same,TGI,[27],> 100 µM
same,TGI,[28],> 100 µM
same,TGI,[29],> 100 µM
same,TGI,[30],> 100 µM
same,TGI,[31],> 100 µM
same,TGI,[32],> 100 µM
same,TGI,[33],> 100 µM
same,TGI,[34],> 100 µM
same,TGI,[35],> 100 µM
same,TGI,[36],> 100 µM
same,TGI,[37],> 100 µM
same,TGI,[38],> 100 µM
same,TGI,[39],> 100 µM
same,TGI,[40],> 100 µM
same,TGI,[41],> 100 µM
same,TGI,[42],> 100 µM
same,TGI,[43],> 100 µM
same,TGI,[44],> 100 µM
same,TGI,[45],> 100 µM
same,TGI,[46],> 100 µM
same,TGI,[47],> 100 µM
same,TGI,[48],> 100 µM
same,TGI,[49],> 100 µM
same,TGI,[50],> 100 µM
same,TGI,[51],> 100 µM
same,TGI,[52],> 100 µM
same,TGI,[53],> 100 µM
same,TGI,[54],> 100 µM
same,TGI,[55],> 100 µM
O=C1c2ccccc2-c2c1c1ccccc1c(=O)n2-c1cccnc1,TGI,[1],44.7 µM
same,TGI,[3],> 100 µM
same,TGI,[4],> 100 µM
same,TGI,[5],> 100 µM
same,TGI,[6],> 100 µM
same,TGI,[8],> 100 µM
same,TGI,[9],> 100 µM
same,TGI,[10],> 100 µM
same,TGI,[11],> 100 µM
same,TGI,[12],> 100 µM
same,TGI,[13],> 100 µM
same,TGI,[14],41.8 µM
same,TGI,[15],> 100 µM
same,TGI,[16],> 100 µM
same,TGI,[17],> 100 µM
same,TGI,[18],> 100 µM
same,TGI,[19],> 100 µM
same,TGI,[56],> 100 µM
same,TGI,[20],> 100 µM
same,TGI,[21],> 100 µM
same,TGI,[22],> 100 µM
same,TGI,[23],> 100 µM
same,TGI,[24],> 100 µM
same,TGI,[25],> 100 µM
same,TGI,[26],> 28.4 µM
same,TGI,[27],> 100 µM
same,TGI,[28],> 100 µM
same,TGI,[29],> 100 µM
same,TGI,[30],39.3 µM
same,TGI,[31],> 100 µM
same,TGI,[32],> 100 µM
same,TGI,[33],> 100 µM
same,TGI,[34],> 100 µM
same,TGI,[35],> 100 µM
same,TGI,[36],> 100 µM
same,TGI,[37],> 100 µM
same,TGI,[38],> 100 µM
same,TGI,[39],> 100 µM
same,TGI,[40],> 100 µM
same,TGI,[57],> 71.1 µM
same,TGI,[41],> 100 µM
same,TGI,[42],> 100 µM
same,TGI,[43],> 100 µM
same,TGI,[44],> 100 µM
same,TGI,[45],> 100 µM
same,TGI,[46],> 100 µM
same,TGI,[47],> 100 µM
same,TGI,[48],> 100 µM
same,TGI,[49],> 100 µM
same,TGI,[50],> 100 µM
same,TGI,[51],> 100 µM
same,TGI,[52],> 100 µM
same,TGI,[53],> 100 µM
same,TGI,[54],> 85.8 µM
same,TGI,[55],> 100 µM
COC1(OC)C[C@H](C)[C@@]23O[C@]24C2=CC(=O)C=CC2=N[C@H]3C#C/C=C\C#C[C@]14O,TGI,[1],0.574 µM
same,TGI,[2],2.11 µM
same,TGI,[3],1.78 µM
same,TGI,[4],0.965 µM
same,TGI,[5],2.2 µM
same,TGI,[6],1.4 µM
same,TGI,[7],0.811 µM
same,TGI,[8],2.14 µM
same,TGI,[9],2.24 µM
same,TGI,[10],2.21 µM
same,TGI,[11],2.13 µM
same,TGI,[12],1.35 µM
same,TGI,[58],0.318 µM
same,TGI,[14],2.25 µM
same,TGI,[59],1.8 µM
same,TGI,[15],5.09 µM
same,TGI,[16],1.25 µM
same,TGI,[17],2.37 µM
same,TGI,[19],1.88 µM
same,TGI,[20],1.82 µM
same,TGI,[21],2.1 µM
same,TGI,[22],1.4 µM
same,TGI,[23],2.06 µM
same,TGI,[24],1.7 µM
same,TGI,[25],2.28 µM
same,TGI,[26],0.106 µM
same,TGI,[27],2.6 µM
same,TGI,[28],2.05 µM
same,TGI,[29],1.42 µM
same,TGI,[31],36.1 µM
same,TGI,[32],1.93 µM
same,TGI,[33],1.74 µM
same,TGI,[34],1.8 µM
same,TGI,[36],2.09 µM
same,TGI,[37],0.56 µM
same,TGI,[38],2.49 µM
same,TGI,[39],12.2 µM
same,TGI,[40],6.65 µM
same,TGI,[57],1.93 µM
same,TGI,[41],3.58 µM
same,TGI,[42],2.51 µM
same,TGI,[43],1.56 µM
same,TGI,[44],2.89 µM
same,TGI,[46],3.02 µM
same,TGI,[47],1.58 µM
same,TGI,[48],0.4 µM
same,TGI,[49],3.42 µM
same,TGI,[50],2.56 µM
same,TGI,[51],2.1 µM
same,TGI,[52],1.82 µM
same,TGI,[53],5.16 µM
same,TGI,[54],2.93 µM
same,TGI,[55],1.76 µM
